Source: US20200000917A1, “METHODS OF PHOTOCHEMICAL TREATMENT FOR WOUND HEALING” (The General Hospital Corporation, priority 2017, published 2020)

Columns and labels:
[1] = tested on: full-thickness, excisional 1 cm by 1 cm wounds on the dorsa of C57BL/6 mice; test: Wound contracture after photochemical treatment (area within tattooed wound perimeter); format: in vivo
Method: (§1) By way of example, the above-described system 20 and method 10 were studied in comparison to untreated control wounds. The study was carried out according to the steps illustrated in FIG. 3. Generally, FIG. 3 illustrates a wound creation step 30, an activating agent delivery step 32, an illumination step 34, and a post-treatment step 36. More specifically, at step 30, full-thickness, excisional 1 cm by 1 cm wounds 38 were created on the dorsa of C57BL/6 mice 40 in both a control group of 16 mice and a test group of 16 mice. Additionally, dots 42 were tattooed on the skin around the wound perimeter in both the control and test groups (as shown in step 34) in order to monitor contracture over the course of wound healing. Following step 30, control group wounds were left alone to heal. With respect to the test group, at step 32, a Rose Bengal solution was painted onto wound beds 38 (e.g., as discussed above with respect to process block 12 of FIG. 1). At step 34, the wounds 38 were illuminated by an electromagnetic radiation source 26, in particular, a KTP laser having a 532-nanometer wavelength, with an energy output of 60 Joules per centimeter squared (e.g., as discussed above with respect to process block 14 of FIG. 1). Steps 32 and 34 were conducted immediately after wound creation at step 30. Step 36 illustrates the immediate result of wound treatment, that is, the photobleaching of Rose Bengal dye.
To compare the test and control groups, the area within each tattooed wound perimeter was serially measured over 6 weeks and percent contracture was calculated. Additionally, at 7, 14, 21, and 42 days, mice were euthanized and tissue was harvested for histology.

[2] = tested on: full-thickness, excisional 1 cm by 1 cm wounds on the dorsa of C57BL/6 mice; test: Histology of harvested wound tissue after photochemical treatment; format: in vivo; details: days 7, 21 and 42 post wound creation; Rose Bengal solution + KTP laser 532 nm, 60 J/cm2
Method: as §1, with “Steps 32 and 34 were conducted immediately after wound creation at step 30. Step 36 illustrates the immediate result of wound treatment, that is, the photobleaching of Rose Bengal dye.” left out
To compare the test and control groups, the area within each tattooed wound perimeter was serially measured over 6 weeks and percent contracture was calculated. […]

SMILES: O=C([O-])c1c(Cl)c(Cl)c(Cl)c(Cl)c1-c1c2cc(I)c(=O)c(I)c-2oc2c(I)c([O-])c(I)cc12.[Na+].[Na+] [Rose Bengal]
- more contracture in control wounds than in test group ([1]; by day 7): ~20%
- percent contracture ([1]; day 7, Rose Bengal solution painted on wound bed, KTP laser 532 nm, 60 J/cm2, immediately after wound creation, control 80.3±8.5%, p=0.014): 67.1±17.1%
- wounds contracted to (percentage of initial area of skin around wound perimeter) ([1]; day 42, Rose Bengal solution + KTP laser 532 nm, 60 J/cm2, control 13.6±5.6%, p=0.003): 35.2±2.9%
- fold difference in remaining area, test group versus control group ([1]; day 42, p=0.003): 1.59 fold
- histological review of wound tissue compared to control group tissue [2]: increased ingrowth and development of dermal cells, increased vascularity, and appearance of skin appendages earlier and to a greater degree
